Experimental findings from ChEMBL document CHEMBL5390202, “Cannabinoid Receptor Type II Ligands from Sandalwood Oil and Synthetic α-Santalol Derivatives” (J Nat Prod, 2023) are described below.

The target of experiment [1] is T1, Cannabinoid receptor 2 (Homo sapiens, UniProt P34972). Put plainly: Displacement of [3H]-CP55940 from human CB2 receptor expressed in CHO cell membranes at 10 uM incubated for 1 hr by TopCount liquid scintillation counting analysis relative to control. The settings on record: Membrane.
T1 sequence (P34972 whole entry): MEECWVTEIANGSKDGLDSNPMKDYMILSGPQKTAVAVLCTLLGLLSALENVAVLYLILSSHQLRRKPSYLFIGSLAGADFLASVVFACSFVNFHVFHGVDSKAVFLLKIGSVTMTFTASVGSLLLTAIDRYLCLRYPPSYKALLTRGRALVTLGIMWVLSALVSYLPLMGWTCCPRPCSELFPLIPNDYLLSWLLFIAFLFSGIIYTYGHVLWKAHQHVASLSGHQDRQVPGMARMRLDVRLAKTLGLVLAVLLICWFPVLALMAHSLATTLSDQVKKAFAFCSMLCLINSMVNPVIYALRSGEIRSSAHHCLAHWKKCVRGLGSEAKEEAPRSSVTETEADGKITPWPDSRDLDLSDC
Experiment [2] concerns the target T1, Cannabinoid receptor 2. The experiment in a line: Displacement of [3H]-CP55940 from human CB2 receptor expressed in CHO cell membranes assessed as inhibition constant incubated for 1 hr by TopCount liquid scintillation counting analysis. More on the design: species or system Membrane. (In a radioligand displacement assay an active substance lowers the binding of a labelled ligand.)

Another experiment has as its target D(2) dopamine receptor (Rattus norvegicus, UniProt P61169). The experiment in a line: Displacement of [3H]-raclopride from rat brain striatum dopamine D2 receptor incubated for 60 mins by liquid scintillation counting analysis. Format: tissue-based.
Experiment [3] addresses T1, Cannabinoid receptor 2. The experiment in a line: Agonist activity at CB2 receptor (unknown origin) expressed in human SH-SY5Y cells assessed as increase in intracellular calcium flux at 3.2 to 10 uM incubated for 3 mins in presence of 60 nM AM-630 by Fluo-4AM dye based fluorescence analysis. Format: functional, cell-based. The settings on record: dose 3.2-10 µM. On the technique in general: Calcium flux is commonly read through the fluorescence of an indicator in the cells.

The target of experiment [4] is T1, Cannabinoid receptor 2. Put plainly: Agonist activity at CB2 receptor (unknown origin) expressed in human SH-SY5Y cells assessed as increase in intracellular calcium flux at 3.2 to 10 uM incubated for 3 mins in presence of 10 uM raloxifene by Fluo-4AM dye based fluorescence analysis. The settings on record: dose 3.2-10 µM. The experiment is classed as functional, cell-based.

In experiment [5] the target is T1, Cannabinoid receptor 2. Put plainly: Agonist activity at CB2 receptor (unknown origin) expressed in human SH-SY5Y cells assessed as increase in intracellular calcium flux at 3.2 to 10 uM incubated for 3 mins by Fluo-4AM dye based fluorescence analysis. The experiment is classed as functional, cell-based. The settings on record: filed as agonist, dose 3.2-10 µM.

The target in experiment [6] is Cannabinoid receptor 1 (Homo sapiens) (UniProt P21554). The experiment in a line: Displacement of [3H]-CP55940 from human CB1 receptor expressed in CHO cell membranes at 10 uM incubated for 1 hr by TopCount liquid scintillation counting analysis relative to control. The settings on record: Membrane.
Sequence of Cannabinoid receptor 1 (Homo sapiens) (P21554 whole entry): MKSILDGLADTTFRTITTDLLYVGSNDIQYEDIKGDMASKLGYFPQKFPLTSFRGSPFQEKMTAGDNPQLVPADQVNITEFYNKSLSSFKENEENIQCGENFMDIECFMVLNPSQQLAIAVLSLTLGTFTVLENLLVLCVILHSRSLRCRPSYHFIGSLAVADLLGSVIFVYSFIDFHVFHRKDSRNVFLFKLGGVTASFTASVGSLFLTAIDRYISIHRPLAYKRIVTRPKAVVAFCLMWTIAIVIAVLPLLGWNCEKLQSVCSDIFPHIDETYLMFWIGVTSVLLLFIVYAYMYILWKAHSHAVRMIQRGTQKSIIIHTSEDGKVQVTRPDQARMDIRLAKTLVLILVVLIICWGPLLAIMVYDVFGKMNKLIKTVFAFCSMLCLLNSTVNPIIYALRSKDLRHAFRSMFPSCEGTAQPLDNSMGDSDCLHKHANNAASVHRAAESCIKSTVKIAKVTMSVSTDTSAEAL
Experiment [7] has as its target 5-hydroxytryptamine receptor 2A (Rattus norvegicus, UniProt P14842). Put plainly: Displacement of [3H]-ketanserin from rat brain cortex 5-HT2A receptor incubated for 60 mins by liquid scintillation counting analysis. The experiment is classed as tissue-based.
Experiment [8] deals with T1, Cannabinoid receptor 2. Put plainly: Agonist activity at CB2 receptor (unknown origin) expressed in human SH-SY5Y cells assessed as increase in intracellular calcium flux at 0.032 to 0.1 uM incubated for 3 mins in presence of 10 uM raloxifene by Fluo-4AM dye based fluorescence analysis. Format: functional, cell-based. The settings on record: dose 0.032-0.1 µM.
Experiment [9] concerns the target T1, Cannabinoid receptor 2. The experiment in a line: Agonist activity at CB2 receptor (unknown origin) expressed in human SH-SY5Y cells assessed as increase in intracellular calcium flux at 0.032 to 0.1 uM incubated for 3 mins in presence of 60 nM AM-630 by Fluo-4AM dye based fluorescence analysis. The experiment is classed as functional, cell-based. The settings on record: dose 0.032-0.1 µM.

Experiment [10] addresses T1, Cannabinoid receptor 2. The experiment in a line: Agonist activity at CB2 receptor (unknown origin) expressed in human SH-SY5Y cells assessed as increase in intracellular calcium flux at 0.032 to 0.1 uM incubated for 3 mins by Fluo-4AM dye based fluorescence analysis. Format: functional, cell-based. The settings on record: filed as agonist, dose 0.032-0.1 µM.
For experiment [11], the target named is T1, Cannabinoid receptor 2. Put plainly: Potency index, ratio of alpha-santalol Ki to test compound Ki for displacement of [3H]-CP55940 from human CB2 receptor expressed in CHO cell membranes incubated for 1 hr by TopCount liquid scintillation counting analysis. The settings on record: Membrane, filed as agonist.

Active and inactive are the calls of the source. The calls are words filed in the database; no cut-off is given here.

Sequence of 5-hydroxytryptamine receptor 2A (P14842 whole entry): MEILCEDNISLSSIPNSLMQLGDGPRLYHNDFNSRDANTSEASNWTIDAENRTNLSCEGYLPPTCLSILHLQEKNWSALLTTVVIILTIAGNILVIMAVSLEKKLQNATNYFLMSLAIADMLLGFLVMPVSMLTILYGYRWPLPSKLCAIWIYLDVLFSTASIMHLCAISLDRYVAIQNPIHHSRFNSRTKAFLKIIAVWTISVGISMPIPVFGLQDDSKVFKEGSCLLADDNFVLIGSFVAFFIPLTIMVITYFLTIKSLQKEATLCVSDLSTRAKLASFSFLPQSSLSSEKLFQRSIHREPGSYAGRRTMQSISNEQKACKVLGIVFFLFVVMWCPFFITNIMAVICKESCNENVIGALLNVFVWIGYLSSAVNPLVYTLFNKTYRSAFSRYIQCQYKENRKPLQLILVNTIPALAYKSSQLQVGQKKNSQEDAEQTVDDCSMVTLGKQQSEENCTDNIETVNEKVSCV
Sequence of D(2) dopamine receptor (P61169 whole entry): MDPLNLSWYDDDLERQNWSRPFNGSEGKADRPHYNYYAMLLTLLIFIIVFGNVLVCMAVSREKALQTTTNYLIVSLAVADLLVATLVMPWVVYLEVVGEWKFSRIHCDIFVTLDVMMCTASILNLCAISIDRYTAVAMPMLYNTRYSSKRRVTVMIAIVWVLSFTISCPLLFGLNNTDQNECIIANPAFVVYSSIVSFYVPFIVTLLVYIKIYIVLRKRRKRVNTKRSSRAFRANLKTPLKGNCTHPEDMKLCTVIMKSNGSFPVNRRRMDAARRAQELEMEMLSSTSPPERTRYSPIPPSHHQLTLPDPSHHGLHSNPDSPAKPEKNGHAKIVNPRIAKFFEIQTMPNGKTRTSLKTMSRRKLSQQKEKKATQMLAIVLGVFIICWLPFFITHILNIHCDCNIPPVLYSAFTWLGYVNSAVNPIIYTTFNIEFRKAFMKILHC

For the molecule `C/C(=C/CC[C@]1(C)[C@@H]2C[C@@H]3[C@H](C2)[C@@]31C)CNNC(=O)c1ccc(N(C)C)cc1`, the Activity at Cannabinoid receptor 2 [1] was found to be 26.5%.

On to `O=C(c1ccc(OCCN2CCCCC2)cc1)c1c(-c2ccc(O)cc2)sc2cc(O)ccc12` [RALOXIFENE], for which the inhibition constant (Ki) (commonly a measure of affinity in units of concentration, obtained from inhibition or displacement) on Cannabinoid receptor 2 [2] is approximately 0.24 µM.

Turning to `C/C(=C/CC[C@]1(C)[C@@H]2C[C@@H]3[C@H](C2)[C@@]31C)CN1CCOCC1`, at Cannabinoid receptor 2 [1], the Activity turned out to be 21.3%.

The molecule `COc1ccc(C(=O)c2c(C)n(CCN3CCOCC3)c3cc(I)ccc23)cc1` came in with an Activity on Cannabinoid receptor 2 [1] (filed as antagonist) of 93%.

In the case of `C/C(=C/CC[C@]1(C)[C@H]2CC3[C@H](C2)[C@]31C)CO`, the results for the half-maximal inhibitory concentration (IC50) (on D(2) dopamine receptor; in experiment [7]) were 75 µM and 180 µM, respectively. Also, the inhibition constant Ki on Cannabinoid receptor 2 [2] worked out at 10.5 µM. Further, the results for the Activity (at Cannabinoid receptor 2 [1] (filed as agonist); in experiment [6]) were 62.5% and less than 16%, respectively. Further, the outcome at Cannabinoid receptor 2 [3] and at Cannabinoid receptor 2 [4] was inactive. For the same molecule, on Cannabinoid receptor 2 [5], the result was Active.

`C/C(=C/CC[C@]1(C)[C@@H]2C[C@@H]3[C@H](C2)[C@@]31C)CN(C)C`: the Activity on Cannabinoid receptor 2 [1] was found to be 2.94%.

For `C/C(=C/CC[C@]1(C)[C@@H]2C[C@@H]3[C@H](C2)[C@@]31C)CNNC(=O)c1ccccc1`, the Activity on Cannabinoid receptor 2 [1] was found to be 26.9%.

At Cannabinoid receptor 2 [1], `C/C(=C/CC[C@]1(C)[C@@H]2C[C@@H]3[C@H](C2)[C@@]31C)CN1CCCC1` registered an Activity of 8.03%.

The molecule `C/C(=C/CC[C@]1(C)[C@@H]2C[C@@H]3[C@H](C2)[C@@]31C)CN(CCO)CCO` registered an Activity on Cannabinoid receptor 2 [1] of 1.72%.

Regarding `C/C(=C/CC[C@]1(C)[C@@H]2C[C@@H]3[C@H](C2)[C@@]31C)CN1CCCCC1`, the Activity on Cannabinoid receptor 2 [1] stood at 16.8%.

On to `C=C1[C@@H]2CC[C@@H](C2)[C@@]1(C)CC/C=C(/C)CO`, for which, at Cannabinoid receptor 2 [2], the Ki came out at 8.19 µM. Also, the Activity at Cannabinoid receptor 2 [1] (filed as agonist) is 55.8%; in [6] it was less than 16%. Moreover, the result on Cannabinoid receptor 2 [3] and at Cannabinoid receptor 2 [4] was inactive. Besides, the result at Cannabinoid receptor 2 [5] was Active.

In the case of `C/C(=C/CC[C@]1(C)[C@H]2C[C@@H]3[C@@H](C2)[C@]31C)CN1CCN(C)CC1`, the outcome at Cannabinoid receptor 2 [8] and on Cannabinoid receptor 2 [9] was inactive. The inhibitory constant (Ki) on Cannabinoid receptor 2 [2] came out at 0.99 µM. Further, the Activity at Cannabinoid receptor 2 [1] (filed as agonist) was 82.1%; in experiment [6], less than 20%. Also, the result on Cannabinoid receptor 2 [10] was Active. On Cannabinoid receptor 2 [11], the Ratio Ki came out at 10.6.

On Cannabinoid receptor 2 [1], `C/C(=C/CC[C@]1(C)[C@@H]2C[C@@H]3[C@H](C2)[C@@]31C)COC(=O)CCC(=O)O` registered an Activity of 5.82%.
